Source: patent US20230078764A1 (Yumanity Therapeutics, Inc., priority 2019, published 2023)

Tests used:
[1] = molecular target: T1, human SCD1 (Homo sapiens, UniProt O00767); assay: Growth inhibition of yeast strain expressing human SCD1 as sole desaturase (OLE1 deleted), OD600 readout; format: cell-based; conditions: yeast strain expressing human SCD1 as sole desaturase; growth (OD600) after 40 h at 30° C.; read-out: SCD1 IC50
T1 construct: expressed in transfected cells; host or cells: yeast strain with OLE1 deleted, plasmid-borne human SCD1 (selected in SD-Ura)
T1 sequence (O00767 1-359): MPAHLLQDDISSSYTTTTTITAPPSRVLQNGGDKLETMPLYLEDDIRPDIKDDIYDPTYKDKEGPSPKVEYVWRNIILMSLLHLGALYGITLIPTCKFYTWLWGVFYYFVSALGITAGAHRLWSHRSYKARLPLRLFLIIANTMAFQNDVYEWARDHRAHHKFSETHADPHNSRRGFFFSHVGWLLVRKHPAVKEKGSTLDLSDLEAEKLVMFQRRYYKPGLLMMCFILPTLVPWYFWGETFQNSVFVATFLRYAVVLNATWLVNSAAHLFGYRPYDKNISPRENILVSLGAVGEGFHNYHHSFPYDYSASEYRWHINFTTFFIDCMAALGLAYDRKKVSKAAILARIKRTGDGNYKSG

[2] = molecular target: T2, human SCD5 (Homo sapiens, UniProt Q86SK9); assay: Growth inhibition of yeast strain expressing human SCD5 as sole desaturase (OLE1 deleted), OD600 readout; format: cell-based; conditions: yeast strain expressing human SCD5 as sole desaturase; growth (OD600) after 40 h at 30° C.; read-out: SCD5 IC50
T2 construct: expressed in transfected cells; host or cells: yeast strain with OLE1 deleted, plasmid-borne human SCD5 (selected in SD-Ura)
T2 sequence (Q86SK9 1-330): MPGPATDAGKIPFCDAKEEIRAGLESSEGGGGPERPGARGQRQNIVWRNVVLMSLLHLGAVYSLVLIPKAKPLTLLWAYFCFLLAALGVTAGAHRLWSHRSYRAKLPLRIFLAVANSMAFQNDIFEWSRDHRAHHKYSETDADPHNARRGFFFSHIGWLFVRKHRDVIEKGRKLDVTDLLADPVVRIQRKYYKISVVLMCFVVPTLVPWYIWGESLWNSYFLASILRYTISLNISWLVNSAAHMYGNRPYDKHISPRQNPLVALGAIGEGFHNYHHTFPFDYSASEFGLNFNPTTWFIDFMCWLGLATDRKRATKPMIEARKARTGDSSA

Row | SMILES | IC50 [1] [µM] | IC50 [2] [µM]
1 | CN1N=C(C(=O)Nc2ccc(Oc3cccc(Cl)c3)cc2)CCC1=O [Compound 159, N-(4-(3-chlorophenoxy)phenyl)-1-methyl-6-oxo-1,4,5,6-tetrahydropyridazine-3-carboxamide] | > 45 | 8.04
2 | Cn1cc(C(=O)Nc2ccc(Oc3cccc(Cl)c3)cn2)ccc1=O [Compound 161, N-[5-(3-chlorophenoxy)pyridin-2-yl]-1-methyl-6-oxo-1,6-dihydropyridine-3-carboxamide] | > 45 | 1.64
3 | Cn1nc(C(=O)Nc2ccc(Oc3cccc(Cl)c3)cn2)ccc1=O [Compound 163, N-[5-(3-chlorophenoxy)pyridin-2-yl]-1-methyl-6-oxo-1,6-dihydropyridazine-3-carboxamide] | > 45 | 0.24
4 | CCn1cc(C(=O)Nc2ccc(Oc3cccc(Cl)c3)cn2)ccc1=O [Compound 165, N-[5-(3-chlorophenoxy)pyridin-2-yl]-1-ethyl-6-oxo-1,6-dihydropyridine-3-carboxamide] | 14.2 | 3.31
5 | CC(C)n1cc(C(=O)Nc2ccc(Oc3cccc(Cl)c3)cn2)ccc1=O [Compound 166, N-[5-(3-chlorophenoxy)pyridin-2-yl]-6-oxo-1-(propan-2-yl)-1,6-dihydropyridine-3-carboxamide] | 14.7 | 9.36
6 | Cn1cc(C(=O)Nc2ccc(Oc3ccc(F)c(Cl)c3)cn2)ccc1=O [Compound 167, N-[5-(3-chloro-4-fluorophenoxy)pyridin-2-yl]-1-methyl-6-oxo-1,6-dihydropyridine-3-carboxamide] | 25.9 | 0.93
7 | Cn1nc(C(=O)Nc2ccc(Oc3ccc(F)c(Cl)c3)cn2)ccc1=O [Compound 168, N-[5-(3-chloro-4-fluorophenoxy)pyridin-2-yl]-1-methyl-6-oxo-1,6-dihydropyridazine-3-carboxamide] | > 45 | 1.72
8 | CCn1cc(C(=O)Nc2ccc(Oc3ccc(F)c(Cl)c3)cn2)ccc1=O [Compound 169, N-[5-(3-chloro-4-fluorophenoxy)pyridin-2-yl]-1-ethyl-6-oxo-1,6-dihydropyridine-3-carboxamide] | > 45 | 2.48
9 | CN1N=C(C(=O)Nc2ccc(OCc3cccc(Cl)c3)cn2)CCC1=O [Compound 170, N-(5-(3-chlorobenzyloxy)pyridin-2-yl)-1-methyl-6-oxo-1,4,5,6-tetrahydropyridazine-3-carboxamide] | > 45 | 1.07
10 | Cn1nc(C(=O)Nc2ccc(OCc3cccc(Cl)c3)cn2)ccc1=O [Compound 171, N-(5-(3-chlorobenzyloxy)pyridin-2-yl)-1-methyl-6-oxo-1,6-dihydropyridazine-3-carboxamide] | > 45 | 0.86
11 | Cn1cc(C(=O)Nc2ccc(COc3cccc(Cl)c3)cn2)ccc1=O [Compound 172, N-(5-((3-chlorophenoxy)methyl)pyridin-2-yl)-1-methyl-6-oxo-1,6-dihydropyridine-3-carboxamide] | 2.29 | 0.37
12 | Cn1cc(C(=O)Nc2ccc(CNc3cccc(Cl)c3)cn2)ccc1=O [Compound 173, N-(5-((3-Chlorophenylamino)methyl)pyridin-2-yl)-1-methyl-6-oxo-1,6-dihydropyridine-3-carboxamide] | 1.72 | 0.15
13 | Cn1nc(C(=O)Nc2ccc(CNc3cccc(Cl)c3)cn2)ccc1=O [Compound 174, N-(5-((3-Chlorophenylamino)methyl)pyridin-2-yl)-1-methyl-6-oxo-1,6-dihydropyridazine-3-carboxamide] | 7.56 | 0.08
14 | Cn1cc(C(=O)Nc2ccc(Cc3cccc(F)c3)nn2)ccc1=O [Compound 176, N-(6-(3-fluorobenzyl)pyridazin-3-yl)-1-methyl-6-oxo-1,6-dihydropyridine-3-carboxamide] | > 45 | 2.66
15 | CN1N=C(C(=O)Nc2ccc(Cc3cc(Cl)ccc3F)nn2)CCC1=O [Compound 177, N-(6-(5-chloro-2-fluorobenzyl)pyridazin-3-yl)-1-methyl-6-oxo-1,4,5,6-tetrahydropyridazine-3-carboxamide] | > 45 | 5.49
16 | O=C(Nc1ccc(Cc2cccc(F)c2)nn1)c1ccc(=O)n(C2CC2)n1 [Compound 178, 1-cyclopropyl-N-{6-[(3-fluorophenyl)methyl]pyridazin-3-yl}-6-oxo-1,6-dihydropyridazine-3-carboxamide] | 6.67 | 0.77

Row | SMILES | IC50 [1] [µM] | IC50 [2] [µM]
17 | CN1N=C(C(=O)Nc2ccc(Cc3ccc(F)c(Cl)c3)nn2)CCC1=O [Compound 179, N-(6-(3-chloro-4-fluorobenzyl)pyridazin-3-yl)-1-methyl-6-oxo-1,4,5,6-tetrahydropyridazine-3-carboxamide] | > 45 | 1.03
18 | Cn1nc(C(=O)Nc2ccc(Cc3ccc(F)c(Cl)c3)nn2)ccc1=O [Compound 180, N-(6-(3-chloro-4-fluorobenzyl)pyridazin-3-yl)-1-methyl-6-oxo-1,6-dihydropyridazine-3-carboxamide] | 6.02 | 0.91
19 | CN1N=C(C(=O)Nc2ccc(COc3cccc(Cl)c3)nn2)CCC1=O [Compound 181, N-(6-((3-chlorophenoxy)methyl)pyridazin-3-yl)-1-methyl-6-oxo-1,4,5,6-tetrahydropyridazine-3-carboxamide] | > 45 | 1.22
20 | Cn1cc(C(=O)Nc2ccc(Cc3cccc(Cl)c3)nn2)ccc1=O [Compound 183, N-(6-(3-chlorobenzyl)pyridazin-3-yl)-1-methyl-6-oxo-1,6-dihydropyridine-3-carboxamide] | 10.7 | 1.41
21 | CCn1cc(C(=O)Nc2ccc(Cc3cccc(Cl)c3)nn2)ccc1=O [Compound 184, N-(6-(3-chlorobenzyl)pyridazin-3-yl)-1-ethyl-6-oxo-1,6-dihydropyridine-3-carboxamide] | > 45 | 28.9
22 | CCn1nc(C(=O)Nc2ccc(Cc3cccc(Cl)c3)nn2)ccc1=O [Compound 185, N-(6-(3-chlorobenzyl)pyridazin-3-yl)-1-ethyl-6-oxo-1,6-dihydropyridazine-3-carboxamide] | > 45 | 8.59
23 | CN1N=C(C(=O)Nc2ccc(Cc3ccccc3)nn2)CCC1=O [Compound 186, N-(6-benzylpyridazin-3-yl)-1-methyl-6-oxo-1,4,5,6-tetrahydropyridazine-3-carboxamide] | > 45 | 12.6
24 | CN1N=C(C(=O)Nc2ccc(Cc3cccc(C4CC4)c3)nn2)CCC1=O [Compound 187, N-(6-(3-cyclopropylbenzyl)pyridazin-3-yl)-1-methyl-6-oxo-1,4,5,6-tetrahydropyridazine-3-carboxamide] | > 45 | 6.51
25 | CN1N=C(C(=O)Nc2ccc(Cc3ccc(Cl)c(Cl)c3)nn2)CCC1=O [Compound 188, N-(6-(3,4-dichlorobenzyl)pyridazin-3-yl)-1-methyl-6-oxo-1,4,5,6-tetrahydropyridazine-3-carboxamide] | 4.4 | 0.19
26 | Cn1cc(NC(=O)c2ccc(Cc3cccc(Cl)c3)nn2)ccc1=O [Compound 189, 6-(3-chlorobenzyl)-N-(1-methyl-6-oxo-1,6-dihydropyridin-3-yl)pyridazine-3-carboxamide] | > 45 | 5.07
27 | CN1N=C(NC(=O)c2ccc(Cc3cccc(Cl)c3)nn2)CCC1=O [Compound 190, 6-(3-chlorobenzyl)-N-(1-methyl-6-oxo-1,4,5,6-tetrahydropyridazin-3-yl)pyridazine-3-carboxamide] | > 45 | 33
28 | CN1N=C(C(=O)Nc2ccc(Cc3cccc(Br)c3)nn2)CCC1=O [Compound 191, N-(6-(3-bromobenzyl)pyridazin-3-yl)-1-methyl-6-oxo-1,4,5,6-tetrahydropyridazine-3-carboxamide] | > 45 | 2.68
29 | CN1N=C(C(=O)Nc2ccc(Cc3ccc(F)c(Cl)c3)nn2)CCC1=O [Compound 192, N-(6-(3-chloro-4-fluorobenzyl)pyridazin-3-yl)-1-methyl-6-oxo-1,4,5,6-tetrahydropyridazine-3-carboxamide] | 11.9 | 1.31
30 | CN1N=C(C(=O)Nc2ccc(Cc3cccc(C(F)(F)F)c3)nn2)CCC1=O [Compound 194, 1-methyl-6-oxo-N-(6-(3-(trifluoromethyl)benzyl)pyridazin-3-yl)-1,4,5,6-tetrahydropyridazine-3-carboxamide] | > 45 | 1.54
31 | Cn1nc(C(=O)Nc2ccc(Cc3cccc(F)c3)nn2)ccc1=O [Compound 195, N-(6-(3-fluorobenzyl)pyridazin-3-yl)-1-methyl-6-oxo-1,6-dihydropyridazine-3-carboxamide] | 15.9 | 2.31
